Assay [1] has as its system isolierten Aortenringen von Kaninchen. Put plainly: Inhibition of angiotensin II-induced contraction of isolated rabbit aortic rings. The assay is classed as cell-based. To be noted: isolated rabbit aortic rings in vitro; effect at 3rd (submaximal) agonist concentration; read-out: IC50 gegen Kontraktionen, induziert durch AII. How it is done:
Kaninchen beiderlei Geschlechts werden durch Nackenschlag betäubt und entblutet, oder fallweise mit Nembutal (ca. 60 - 80 mg/kg i.v.) narkotisiert und durch Öffnung des Thorax getötet. Die Thoraxaorta wird entnommen, von anhaftendem Bindegewebe befreit, in 1,5 mm breite Ringsegmente geteilt und einzeln unter einer Anfangsbelastung von ca. 3,5 g in 10 ml Organbäder mit auf 37°C temperierter, Carbogen-begaster Krebs-Henseleit-Nährlösung folgender Zusammensetzung: 119 mmol/l NaCl; 2,5 mmol/l CaCl₂ x 2 H₂O; 1,2 mmol/l KH₂PO₄; 10 mmol/l Glucose; 4,8 mmol/l KCl; 1,4 mmol/l MgSO₄ x 7 H₂O und 25 mmol/l NaHCO₃ verbracht.
Die Kontraktionen werden isometrisch durch Statham UC2-Zellen über Brückenverstärker (ifd Mülheim bzw. DSM Aalen) erfaßt und mittels A/D-Wandler (System 570, Keithley München) digitalisiert sowie ausgewertet. Die Durchführung von Agonistdosiswirkungskurven (DWK) erfolgt stündlich. Mit jeder DWK werden 3 bzw. 4 Einzelkonzentrationen im 4 min-Abstand in die Bäder appliziert. Nach Ende der DWK und darauffolgender Auswaschzyklen (16 mal jeweils ca. 5 sec/min mit der o.a. Nährlösung) schließt sich eine 28-minütige Ruhe- bzw. Inkubationsphase an, innerhalb derer die Kontraktionen in der Regel wieder den Ausgangswert erreichen.
Die Höhe der im Normalfall 3. […]

The target of assay [2] is T1, Angiotensin II-Rezeptor (Bos taurus, UniProt P25104).
T1 construct: an partiell gereinigten Membranfraktionen boviner NNR mit radioaktivem Angiotensin II; from tissue; host or cells: bovine adrenal cortex, partially purified membrane fractions
T1 sequence (P25104 1-359): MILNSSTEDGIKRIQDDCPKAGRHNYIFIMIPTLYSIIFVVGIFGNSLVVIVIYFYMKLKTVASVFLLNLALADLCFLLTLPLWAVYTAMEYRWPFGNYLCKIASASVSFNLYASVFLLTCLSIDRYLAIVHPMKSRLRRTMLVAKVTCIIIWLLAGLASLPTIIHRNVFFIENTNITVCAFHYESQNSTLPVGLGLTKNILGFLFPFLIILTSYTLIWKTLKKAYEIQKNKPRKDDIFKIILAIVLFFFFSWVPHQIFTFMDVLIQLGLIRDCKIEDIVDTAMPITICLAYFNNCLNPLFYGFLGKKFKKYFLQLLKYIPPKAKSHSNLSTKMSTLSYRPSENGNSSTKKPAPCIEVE
Put plainly: Angiotensin II receptor binding on membrane fractions of bovine adrenal cortex (3H-angiotensin II). On the set-up: species or system Rind. The note with it: bovine adrenal cortex membranes, 3H-Angiotensin II 3-5 nM, 60 min, room temperature. How it is done: Nebennierenrinden vom Rind (NNR), die frisch entnommen und sorgfältig von Mark von Kapsel befreit sind, werden in Sucrose-Lösung (0,32 M) mit Hilfe eines Ultra-Turrax (Janke & Kunkel, Staufen i.B.) zu grobem Membran-Homogenat zerkleinert und in zwei Zentrifugationsschritten zu Membranfraktionen partiell aufgereinigt. Die Untersuchungen zur Rezeptor-Bindung werden an partiell gereinigten Membranfraktionen boviner NNR mit radioaktivem Angiotensin II in einem Assay-Volumen von 0,25 ml durchgeführt, das im einzelnen die partiell gereinigten Membranen (50 - 80 µg), ³H-Angiotensin II (3-5 nM), Test-Pufferlösung (50 mM Tris, pH 7,2, 5 mM MgCl₂ sowie die zu untersuchenden Substanzen enthält. Nach einer Inkubationszeit von 60 min bei Raumtemperatur wird die nicht gebundene Radioaktivität der Proben mittels angefeuchteter Glasfaserfilter (Whatman GF/C) separiert und die gebundene Radioaktivität nach Waschung des Proteins mit eiskalter Pufferlösung (50 mM Tris/HCl, pH 7,4, 5% PEG 6000) in einem Szintillationscocktail […] gemessen. Die Analyse der Rohdaten erfolgte mit Computer-Programmen zu Ki- bzw. IC₅₀-Werten (Ki: für die verwendete Radioaktivität korrigierte IC₅₀-Werte; IC₅₀-Werte: Konzentration bei der die zu untersuchende Substanz eine 50%ige Hemmung der spezifischen Bindung des Radioliganden bewirkt).

For orientation: IC50 means the concentration at which inhibition is half-maximal. Usually Ki stands for a dissociation constant, usually derived from enzyme kinetics or from competition with a known ligand.

Read-outs that look alike come from different tables or passages of the source.

In the case of `CCCCc1nc2cccc(C(=O)OC)c2n1Cc1ccc(S(=O)(=O)N2CCCC2C(=O)O)cc1Cl` (stereo in doubt) [Beispiel 2, (S)-2-Butyl-1-[3-chlor-1-(N-2'-carboxy-pyrrolidinyl)-sulfonyl]-7-methoxycarbonyl-benz[d]imidazol], the IC50 in assay [1] was 46 nM.

With `CCCCc1nc2cccc(C(=O)O)c2n1Cc1ccc(S(=O)(=O)N2CCC[C@H]2C(=O)O)cc1Cl` [Beispiel 3, (S)-2-Butyl-7-carboxy-1-[3-chlor-1-(N-2-carboxy-pyrrolidinyl)-sulfonyl]-benz[d]imidazol], the Ki in assay [2] was found to be 48 nM. For `CCCCc1nc2cccc(C(=O)OC)c2n1Cc1ccc(S(=O)(=O)N2CCC[C@H]2C(=O)OC(C)(C)C)cc1F` [Beispiel 4], in assay [2] (read-out: Ki), the Ki came to 735 nM. The compound `CCCCc1nc2cccc(C(=O)O)c2n1Cc1ccc(S(=O)(=O)N2CCC[C@H]2C(=O)O)cc1Cl` [Beispiel 7, (S)-2-Butyl-7-carboxy-1-[3-chlor-1-(N-2-carboxypyrrolidinyl)-sulfonyl]benz[d]imidazol Bis Kaliumsalz] returned a Ki in assay [2] of 260 nM.

Source of the values: patent EP0643060A2, “Sulfonylbenzyl-substituted benzimidazoles, process for their preparation, and their pharmaceutical use” (BAYER AG, priority 1993, dated 1995).
